Test system: Mycolicibacterium smegmatis
Assay: Antimycobacterial activity was determined against Mycobacterium smegmatis
Assay type: functional

## O=C(O)c1cn(C2CC2)c2cc(N3CCNCC3)c(F)cc2c1=O [CIPROFLOXACIN]
  Log of inhibitory zone: 1.28 log mm

From ChEMBL document CHEMBL1149238, “A novel mixed-ligand antimycobacterial dimeric copper complex of ciprofloxacin and phenanthroline” (2004)
